Consider 2 compounds from patent US20060041017A1, “Synergistic conjugated linoleic acid (CLA) and carnitine combination” (priority 2004, published 2006).

Type in all cases: in vivo
In assay [1] the test system is carnitine palmitoyl transferase (CPT 1). Kind of assay: CPT I activity in brown adipose tissue after two weeks of daily oral gavage. The conditions noted are these: adult rats, oral gavage daily for two weeks; for CPT I activity in brown adipose tissue (low dose) % Control: control = corn oil; for CPT I activity in brown adipose tissue (standard dose) % Control: control = water; for CPT I activity in brown adipose tissue (low dose) Mean ± SEM: L-Carnitine 68.25 mg, CLA 91 mg, Carnitine+CLA 68.25 mg+91 mg; for CPT I activity in brown adipose tissue (standard dose) Mean ± SEM: L-Carnitine 273 mg, CLA 354 mg, Carnitine+CLA 273 mg+364 mg. The text has this:
Brown adipose tissue is an important site for long-term storage of fat in the body and for the rapid metabolism of fat for thermogenesis. CPT I is a key enzyme in this process and it has an essential role In the metabolism of fats by transporting long chain fatty acids into the Inner mitochondria for oxidation. The first experiment involved the following groups of adult rats. The treatment involved administration of the following products daily by oral gavage for two weeks, the control group receiving water. Carnitine was administered as the fumarate salt. • 1. Control (water)−(1 mL) • 2. L-Carnitine−273 mg (in 1 mL water) • 3. CLA−354 mg (In 1 mL corn oil) • 4. Carnitine+CLA−273 mg+364 mg (in 1 mL corn oil) At the end of two weeks, the animals were euthanized and brown adipose tissue was excised for CPT I assay according to Rahman et al(2001). […] Corn Oil−(1 mL) • 2. L-Carnitine−68.25 mg (in 1 mL water) • 3. CLA−91 mg (in 1 mL corn oil) • 4. Carnitine+CLA−68.25 mg+91 mg (in 1 mL corn oil)

Assay [2] deals with heart mitochondrial CoQ. Kind of assay: Heart mitochondrial CoQ levels (HPLC) after 2 weeks of supplementation. The conditions noted are these: Wistar rats; for Heart mitochondrial CoQ content (CoQ10-OX+CoQ9-OX) in comparison with control group: 2 weeks, result in words; for HEART mitochondria CoQ9-OX / HEART mitochondria CoQ10 + CoQ9 / HEART mitochondria CoQ10-OX: oral gavage daily 2 weeks, 91 mg CLA, 68,25 mg L-carnitine fumarate, means ± s.e.m. As to the method:
(§1) Methods: Four groups of 3-months old Wistar rats were given the following treatments by oral gavage daily for 2 weeks: (1) C (control)−1 ml corn oil, (2) CLA−91 mg CLA (in corn oil), (3) CAR−68,25 mg L-carnitine fumarate (in corn oil), (4) CLA+CAR−91 mg CLA with 68,25 mg L-carnitine fumarate (in corn oil). Body weight and body fat weight (corpus adiposum nuchae, corpus adiposum, perirenal tissue, omentum majus) were measured. CoQ 10 and CoQ9 in isolated mitochondria were estimated by HPLC method. For evaluation of parameters of oxidative phosphorylation were used Gilson oxygraph records of respiratory chain by using Clark oxygen electrode (S3— ADP stimulated respiration, S4— basal respiration, OPR—rate of ATP production). A spectrophotometric assay was used for CPT activity.

In assay [3] the test system is Carnitine palmitoytransferase (CPT). The experiment in a line: CPT activity in heart mitochondria (spectrophotometric assay). The conditions noted are these: Wistar rats, oral gavage daily 2 weeks; 91 mg CLA, 68,25 mg L-carnitine fumarate; means ± s.e.m. As to the method:
as §1

Assay [4] concerns kidney mitochondrial CoQ. Kind of assay: Kidney mitochondrial CoQ levels (HPLC) after 2 weeks of supplementation. The conditions noted are these: Wistar rats; for Kidney mitochondrial CoQ content (CoQ10-OX+CoQ9-OX) in comparison with control group: 2 weeks, result in words; for KIDNEY mitochondria CoQ9-OX / KIDNEY mitochondria CoQ10 + CoQ9 / KIDNEY mitochondria CoQ10-OX: oral gavage daily 2 weeks, 91 mg CLA, 68,25 mg L-carnitine fumarate. As to the method:
as §1

Assay [5] concerns Carnitine palmitoytransferase (CPT). Kind of assay: CPT activity in kidney mitochondria (spectrophotometric assay). To be noted: Wistar rats, oral gavage daily 2 weeks; 91 mg CLA, 68,25 mg L-carnitine fumarate. As for the experimental part: as §1

For the compound `C[N+](C)(C)CC(O)CC(=O)[O-]` (stereo not shown) [Carnitine, 3-hydroxy-4-N,N, N-trlmethylaminobutyrate], in assay [1], the CPT I activity in brown adipose tissue (low dose) % Control stood at 125 % Control, the “CPT I activity in brown adipose tissue (standard dose) % Control” value was 117.85 % Control, the “CPT I activity in brown adipose tissue (low dose) Mean ± SEM” value amounted to 27.024 ± 2.074 nmoles/mg protein/min and the “CPT I activity in brown adipose tissue (standard dose) Mean ± SEM” value was determined as 26.808 ± 2.373 nmoles/mg protein/min. In assay [2], the “Heart mitochondrial CoQ content (CoQ10-OX+CoQ9-OX) in comparison with control group” value is “significantly stimulated”, the “HEART mitochondria CoQ9-OX” value was 4.692 ± 0.168 nmol/mg prot, the “HEART mitochondria CoQ10 + CoQ9” value worked out at 5.147 ± 0.181 nmol/mg prot and the “HEART mitochondria CoQ10-OX” value is 0.452 ± 0.021 nmol/mg prot. Further, the “HEART mitochondria CPT” value in assay [3] is recorded as 12.36 ± 1.759 nmol/mg rot./min. Further, in assay [4], the “Kidney mitochondrial CoQ content (CoQ10-OX+CoQ9-OX) in comparison with control group” value is “significantly stimulated”, the “KIDNEY mitochondria CoQ9-OX” value is 1.290 ± 0.119 nmol/mg prot, the “KIDNEY mitochondria CoQ10 + CoQ9” value is given as 1.471 ± 0.128 nmol/mg prot and the “KIDNEY mitochondria CoQ10-OX” value came out at 0.138 ± 0.012 nmol/mg prot. Also, the “KIDNEY mitochondria CPT” value in assay [5] is 2.974 ± 0.466 nmol/mg rot./min.
As for octadecadienoic acid [CLA], in assay [1], the “CPT I activity in brown adipose tissue (low dose) % Control” value is on record as 121.53 % Control, the “CPT I activity in brown adipose tissue (standard dose) % Control” value is given as 129.82 % Control, the “CPT I activity in brown adipose tissue (low dose) Mean ± SEM” value turned out to be 27.840 ± 1.259 nmoles/mg protein/min and the “CPT I activity in brown adipose tissue (standard dose) Mean ± SEM” value was 29.530 + 1.590 nmoles/mg protein/min. Further, in assay [2], the “Heart mitochondrial CoQ content (CoQ10-OX+CoQ9-OX) in comparison with control group” value was “significantly stimulated”, the “HEART mitochondria CoQ9-OX” value came to 3.379 ± 0.261 nmol/mg prot, the “HEART mitochondria CoQ10 + CoQ9” value is listed as 3.722 ± 0.298 nmol/mg prot and the “HEART mitochondria CoQ10-OX” value came to 0.343 ± 0.041 nmol/mg prot. Further, in assay [3], the “HEART mitochondria CPT” value stood at 15.52 ± 1.080 nmol/mg rot./min. Also, in assay [4], the “Kidney mitochondrial CoQ content (CoQ10-OX+CoQ9-OX) in comparison with control group” value was “significantly stimulated”, the “KIDNEY mitochondria CoQ9-OX” value worked out at 1.162 ± 0.102 nmol/mg prot, the “KIDNEY mitochondria CoQ10 + CoQ9” value is given as 1.284 ± 0.105 nmol/mg prot and the “KIDNEY mitochondria CoQ10-OX” value came out at 0.122 ± 0.005 nmol/mg prot. In addition, the “KIDNEY mitochondria CPT” value in assay [5] amounted to 6.517 ± 0.351 nmol/mg rot./min.
